According to patent US11530196B2, “Pyrimidine compound acting on EGFR and ERBB2” (CHINA RESOURCES PHARMACEUTICAL HOLDINGS COMPANY LIMITED, priority 2019, dated 2022):

Tests used:
[1] = Compound stability test in plasma (monkey); type: in vitro ADME, cynomolgus monkey
Procedure: (§1) In this study, mouse, SD rat, Beagle, cynomolgus monkey and human plasma were used as materials to investigate the stability of the tested compounds in the plasma of the above five species. Propantheline, Enalapril, Bisacodyl and Procaine were used as control compounds.
(§2) The experimental conditions for the test compounds were as follows: • test concentration: 2 μM (DMSO ≤0.5%); • incubation times: 0, 10, 30, 60 and 120 minutes; • frozen plasma (from multiple species) was used in the test system; • incubation conditions: 37° C.
(§3) The mixed frozen plasma was thawed in a 37° C. water bath prior to the experiment. Plasma was centrifuged at 4000 rpm for 5 minutes and cleared if there was a clot. The pH will be adjusted to 7.4±0.1 if required.
(§4) The intermediate solution of 1 mM compound and positive control was prepared by diluting 10 mM stock solution with 90 μL of dimethyl sulfoxide. 100 μM solution was prepared by diluting 20 μL of intermediate solution (1 mM) with 180 μL of 45% methanol/water.
(§5) 2 μL of 100 μM solution was added to 98 μL of blank plasma to achieve a final concentration of 2 μM (in duplicate) of the sample, and the sample was incubated in a 37° C. water bath. At each time point (0, 10, 30, 60 and 120 min), 400 μL of termination solution (200 ng/mL toluenesulfonylurea and 200 ng/mL labetalol, 50% ACN/MeOH) was added to precipitate the proteins and mixed thoroughly. […]

[2] = Compound stability test in plasma (dog); type: in vitro ADME, Beagle
Procedure: as §1, §2, §3, §4, §5

[3] = target: HER2 exon 20 insertion (V777_G778ins > CG) enzyme (Homo sapiens, UniProt P04626, INS777CG); assay: Kinase assay (HTRF KinEASE TK), HER2 exon 20 insertion; type: biochemical
Chain of HER2 exon 20 insertion (V777_G778ins > CG) enzyme (P04626 with tags, fused parts or gaps INS777CG limits assumed): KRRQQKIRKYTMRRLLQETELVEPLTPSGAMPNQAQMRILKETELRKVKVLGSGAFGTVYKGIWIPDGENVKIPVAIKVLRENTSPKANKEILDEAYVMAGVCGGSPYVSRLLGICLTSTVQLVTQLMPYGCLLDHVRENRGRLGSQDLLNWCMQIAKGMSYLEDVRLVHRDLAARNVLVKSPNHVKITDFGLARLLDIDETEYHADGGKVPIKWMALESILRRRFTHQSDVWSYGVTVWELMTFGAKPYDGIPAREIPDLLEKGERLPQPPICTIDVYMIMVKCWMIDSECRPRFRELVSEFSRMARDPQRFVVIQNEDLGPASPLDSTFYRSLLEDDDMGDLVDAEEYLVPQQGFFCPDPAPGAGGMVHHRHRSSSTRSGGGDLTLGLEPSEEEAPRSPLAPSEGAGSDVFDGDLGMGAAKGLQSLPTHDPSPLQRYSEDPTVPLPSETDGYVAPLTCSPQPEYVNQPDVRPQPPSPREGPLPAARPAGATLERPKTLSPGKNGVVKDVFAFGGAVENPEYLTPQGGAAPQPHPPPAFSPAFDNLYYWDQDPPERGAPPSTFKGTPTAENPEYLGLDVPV
Source text: To detect the inhibitory effect of compounds on EGFR WT, EGFR (D770_N771insNPG), ERBB2 (V777_G778ins>CG), EGFR T790M/L858R enzyme activities
EGFR WT (Invitrogen, Cat. No. PR7295B), EGFR [L858R] (Invitrogen, Cat. No. PR7447A), EGFR [d746-750] (Invitrogen, Cat. No. PV6179), ATP (Sigma, Cat. No. A7699-1G), DMSO (Sigma, Cat. No. D2650), DTT (Sigma, Cat. No. 43815), 384-well plate, compound dilution plate (Greiner, Cat. No. 781280), 384-well plate, test plate (Perkin Elmer, Cat. No. 6007299), HTRF KinEASE TK Kit (Cisbio, Cat. No. 62TK0PEB), magnesium chloride (Sigma, Cat. No. M1028), Orthovanadate (Sigma, Cat. No. 56508), BSA (Sigma, Cat. No. A7030), HEPES (Life technology, Cat. No. 11344-041).
The final test concentrations of the test compounds ranged from 10 μM to 0.17 nM in 3-fold gradient dilutions at 11 concentrations.
The preparation of the buffer, 50 mM HEPES (pH 7.5), 0.01% BSA, 5 mM MgCl2, and 0.1 mM Orthovanadate were contained in the buffer. After the preparation of the buffer, the enzyme and substrate were mixed with pre-diluted prepared compounds of different concentrations, and the mixture was placed at room temperature for 15 minutes. […] After the reaction was completed, the antibody was added to the assay, incubated at room temperature for 60 minutes and then detected by Envision (plate reading instrument), and data were collected. […]

In vitro plasma stability (Residual percentage) ([1]; 120 minutes, 2 μM, 37° C.): 93.7%
half-life at 2 µM ([1]; pH 7.4, 37° C., read-out: In vitro plasma half-life T1/2): > 4.82 h
In vitro plasma stability (Residual percentage) ([2]; 120 minutes, 2 μM, 37° C.): 101.7%
half-life at 2 µM ([2]; beagle, pH 7.4, 37° C., read-out: In vitro plasma half-life T1/2): > 4.82 h
IC50 [3]: 1.86 nM
SMILES: C=CC(=O)Nc1cc(Nc2ncc(C(=O)OC(C)C)c(-c3cn(OC)c4ccccc34)n2)c(OC)cc1N(C)CCN(C)C.CS(=O)(=O)O [Compound 1]
